# Numbers after ± are expanded uncertainties.
# Conditions: Liquid, Ebulliometric method (Recirculating still)
smiles,measurement,setting,value
CO [methanol],vapor or sublimation pressure,324.92 K,60 ± 0.87 kPa
same,vapor or sublimation pressure,337.82 K,101.3 ± 1.6 kPa
CCN(CC)CCO [(diethylamino)ethanol],vapor or sublimation pressure,418.34 K,60 ± 1.2 kPa
same,vapor or sublimation pressure,435.94 K,101.3 ± 2.1 kPa
CCNCC [diethylamine],vapor or sublimation pressure,313.64 K,60 ± 1 kPa
same,vapor or sublimation pressure,328.67 K,101.3 ± 1.8 kPa

# Reference: the NIST ThermoML archive (doi:10.1021/je301219c)
